Laboratory results as given in patent publication US4943566A, “Novel 17-aryl-steroids” (Roussel Uclafi, priority 1987, dated 1990).

Legend:
[1] = target: T1, glucocorticoid receptor, rat thymus (Rattus norvegicus, UniProt P06536); assay: Relative binding affinity (ARL), glucocorticoid receptor of rat thymus; details: rat thymus cytosol, tritiated dexamethasone, cold reference dexamethasone; for relative affinity of the bond (ARL), Glucocorticoid, 2H: incubation 2H at 0° C.; for relative affinity of the bond (ARL), Glucocorticoid, 24H: incubation 24H at 0° C.
T1 construct: The second test was a glucocrticoid receptor test on rat thymus; from tissue; host or cells: thymus of adrenalectomized male Sprague Dawley EOPS rats, 105,000 g supernatant (cytosol)
T1 sequence (P06536 1-795): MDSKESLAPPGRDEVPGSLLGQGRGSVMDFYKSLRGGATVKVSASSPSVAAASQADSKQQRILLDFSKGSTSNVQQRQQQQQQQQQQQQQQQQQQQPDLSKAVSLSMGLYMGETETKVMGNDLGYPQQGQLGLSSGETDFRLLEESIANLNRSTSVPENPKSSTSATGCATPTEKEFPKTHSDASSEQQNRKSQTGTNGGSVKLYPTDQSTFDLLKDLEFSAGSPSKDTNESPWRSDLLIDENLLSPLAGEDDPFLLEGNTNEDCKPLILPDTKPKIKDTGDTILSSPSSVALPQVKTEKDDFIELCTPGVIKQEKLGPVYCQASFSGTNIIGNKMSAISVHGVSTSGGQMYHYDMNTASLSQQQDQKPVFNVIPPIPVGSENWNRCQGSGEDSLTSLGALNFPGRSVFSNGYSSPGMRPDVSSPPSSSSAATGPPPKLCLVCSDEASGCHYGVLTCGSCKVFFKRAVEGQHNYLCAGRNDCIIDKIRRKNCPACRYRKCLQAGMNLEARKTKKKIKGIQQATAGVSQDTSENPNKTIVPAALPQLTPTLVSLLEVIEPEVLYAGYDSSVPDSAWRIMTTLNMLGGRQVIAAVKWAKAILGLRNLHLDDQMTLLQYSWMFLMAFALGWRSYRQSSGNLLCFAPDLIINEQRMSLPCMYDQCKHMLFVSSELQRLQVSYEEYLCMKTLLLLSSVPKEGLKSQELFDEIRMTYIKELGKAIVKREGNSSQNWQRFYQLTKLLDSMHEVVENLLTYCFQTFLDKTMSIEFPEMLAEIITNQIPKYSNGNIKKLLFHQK
Method: The second test was a glucocrticoid receptor test on rat thymus in which male rats of the Sprague Dawley EOPS strain weighing 160 to 200 g were surrenalectomized. 4 to 8 days after this ablation, the animals were killed and the thymus was removed and homogenized at 0° C. in a buffered TS solution. (Tris 10 mM, 0.25M saccharose, 2 mM dithiothreitol, HCl pH 7.4) with a Potter tetrafluoroethylene-glass (1 g of tissue per 10 ml/TS). The homogenate was ultracentrifuged at 105,000 for 90 minutes at 0° C. and the surnageant samples were incubated at 0° C. for a time t with a constant concentration T of tritiated dexamethasone in the presence of increasing concentrations (0-2500×10^-9 M) or cold dexamethasone or cold test compound. The concentration B of bound tritiated dexamethasone was measured for each incubate by carbon-dextran absorption technique.
The relative affinity of the bond (ARL) was calculated in the same for the receptors. One traced the following 2 curves: the percentage of bond tritiated hormone B/T as a logarithmic function of the concentration of the cold reference hormone and B/T as a logarithmic function of the concentration of the cold test compound. Using the equation [formula] B/T max.=% of bound tritiated hormone for one incubation of tritiated hormone at concentration (T)
B/T min.=% of bound tritiated hormone for one incubation of tritiated hormone at a concentration T in the presence of a great excess of cold hormone (2500×10^-9 M).
The intersections of I50 lines and the curves permit an evaluation of the hormone concentration of the cold reference (CH) and the cold test compound (CX) which inhibited by 50% the bounding of tritiated hormone to the receptor. The ARL of the test compound was determined by the equation. [formula] and the following results were obtained.

[2] = test system: mammary Tumoral cells MCF-7; assay: Anti-proliferative activity against the increase of mammary tumoral cells MCF-7 (ADN by DABA fluorimetry); type: cell-based; details: Homo sapiens, MCF7, 144 h; MCF-7 cells, SVF medium, 6 days, ADN content; read-out: CI50 in nM (concentration which inhibits by 50% the increase in the MCF 7 cells)
Method: The cell culture line MCF-7 was maintained in culture in SVF (1) medium at 37° C. in a humid atmosphere containing 5% CO2. The cells at subconfluence were collected by trypsination (0.05% trypsine, 0.02% EDTA) then rinsed by gentle centrifiguation. A sample of the cells in suspension was counted by the Malassez cell. To study the increase, the cells resuspended in SVF medium were innoculated at a rate of 30,000 cells per well in a multiwell plate (24 wells per 2.5 cm^2) 24 hours after the innoculation (Day 0), the test compound was added to the medium in an ethanolic solution (final ethanol concentration is 0.1%) a concentration of 10^-6 M. The control wells received the same concentration of ethanol. The mediums were totally renewed at 48 hours. At the end of the experiment (Day 6), the medium was aspirated and the cells were immediately fixed by 150 μl of methanol after a dose of ADN. The anti-proliferative activity of the products was determined by the capacity to inhibit ADN increase.
ADN is dosed by a fluorimetric method using DABA (3,5-diamino benzoic acid). 150 μl of DABA was added to each well and the plates were incubated for 45 minutes at 56° C. and then 1.5 ml of 1N hydrochloric acid was added. The fluoresence was measured with a fluorimeter (excitement length 400 nM-length of emission wave 500 nM). The amount of ADN per well was evaluated with respect to a standard scale obtained by treating under the same conditions an ADN standard of the calf thymus. The concentration in nM which inhibit by 50% the increase in the MCF 7 cells or CI50 was determined in the same manner with the results of the following Table.
The medium for culture of calf fetal serum (SVF) was prepared as follows: MEM medium (minimal essential medium) to which was added non-essential amino acids (GIBCO), peni-strepto (penicillin 100 U/ml, streptomycine 0.1 mg/ml), 0.1% fungizone, 50 ng/ml of insulin and a 10% final concentration of calf fetal serum free of endrogenic steroids.

Compound	relative affinity of the bond (ARL), Glucocorticoid, 2H [1]	relative affinity of the bond (ARL), Glucocorticoid, 24H [1]	IC50 [2]
CN(C)c1ccc([C@H]2C[C@@]3(C)[C@@H](CC[C@@]3(O)c3ccc(N(C)C)cc3)[C@@H]3CCC4=CC(=O)CCC4=C32)cc1 [Example 2, 11β,17α-bis-(4-dimethylamino-phenyl)-Δ^4,9-estradiene-17β-ol-3-one]	61	58	500 nM
COc1ccc([C@]2(O)CC[C@H]3[C@@H]4CCC5=CC(=O)CCC5=C4[C@@H](c4ccc(N(C)C)cc4)C[C@@]32C)cc1 [Example 4, 11β-(4-dimethylamino-phenyl)-17α-(4-methoxy-phenyl)-Δ^4,9-estradiene-17β-ol-3-one]	65	69	400 nM
